According to paper PMC8617031, “Development of a BCL-xL and BCL-2 dual degrader with improved anti-leukemic activity,” (Nature Communications, 2021):
Values joined by “and” are separate entries in the source; they are usually repeats but may differ in a detail not shown here. Equal values may be shown once.

How the values were obtained:
[1] = tested on: BCL-xL/PROTAC/VCB ternary complex (HiBit-BCL-xL, HaloTag-VHL); test: NanoBRET intracellular ternary complex formation in 293T cells, BCL-xL; format: cell-based, human; settings: for NanoBRET signal (610/450 ratio, background-subtracted), Ave, Bcl-xl: Ave of Read1 and Read2, per replicate well; for NanoBRET signal (610/450 ratio, background-subtracted), Read1, Bcl-xl / NanoBRET signal (610/450 ratio, background-subtracted), Read2, Bcl-xl: individual replicate wells
Text: (§1) Plasmids HaloTag-VHL (Cat. No. CS1679C155) and CMV HiBit (Cat. No. CS1956B03) were purchased from Promega. HiBit-BCL-xL and HiBit-BCL-2 were constructed previously. The two mutants (HiBit-BCL-xL-K157-only and HiBit-BCL-xL-K-ko) were constructed through Gibson assembly method. The primer pair (5′-[…]-3′ and 5′-[…]c[…]-3′) and the template Flag-BCL-xL-K157-only or Flag-BCL-xL-K-ko (pDL2129)[2] were used to clone the BCL-xL-K157-only-containing and BCL-xL-K-ko-containing fragments, respectively. The primer pair (5′-[…]g[…]-3′ and 5′-[…]-3′) and pBit3.1-N (Cat. No. N2361, Promega) were used to clone the vector-containing fragment. The PCR fragments were assembled using NEBuilder® HiFi DNA Assembly Master Mix (Cat. No. E2621, NEB, Ipswich, MA, USA). DNA sequences in all these plasmids were authenticated by automatic sequencing. […] After 24 h, 2 × 10^4 transfected cells were seeded into white 96-well tissue culture plates in Gibco™ Opti-MEM™ I Reduced Serum Medium, No Phenol Red (Cat. No. 11-058-021, Fisher) containing 4% FBS with or without HaloTag NanoBRET 618 Ligand (Cat. No. PRN1662, Promega) and incubated overnight at 37 °C, 5% CO2. The following day, serial diluted compounds were added into the medium and plates were incubated at 37 °C, 5% CO2, for 6 h. After treatment, NanoBRET Nano-Glo Substrate (cat. no. N1662, Promega) was added into the medium, and the contents were mixed by shaking the plate for 30 s before measuring donor and acceptor signals on Biotek plate reader. Dual-filtered luminescence was collected with a 450/50 nm bandpass filter (donor, NanoBiT-BCL-XL protein or NanoBiT-BCL-2 protein) and a 610-nm longpass filter (acceptor, HaloTag NanoBRET ligand) using an integration time of 0.5 s. mBRET ratios were calculated following the NanoBRET™ Nano-Glo® Detection System (Cat. No. N1662, Promega).

[2] = tested on: BCL-2/PROTAC/VCB ternary complex (HiBit-BCL-2, HaloTag-VHL); test: NanoBRET intracellular ternary complex formation in 293T cells, BCL-2; format: cell-based, human; settings: for NanoBRET signal (610/450 ratio, background-subtracted), Ave, Bcl-2: Ave of Read1 and Read2, per replicate well; for NanoBRET signal (610/450 ratio, background-subtracted), Read1, Bcl-2 / NanoBRET signal (610/450 ratio, background-subtracted), Read2, Bcl-2: individual replicate wells
Text: as §1

Row | Structure (SMILES) | NanoBRET signal (610/450 ratio, background-subtracted), Ave, Bcl-xl ([1]; 0.333 uM) | NanoBRET signal (610/450 ratio, background-subtracted), Read1, Bcl-xl ([1]; 0.333 uM) | NanoBRET signal (610/450 ratio, background-subtracted), Read2, Bcl-xl ([1]; 0.333 uM) | NanoBRET signal (610/450 ratio, background-subtracted), Ave, Bcl-xl ([1]; 1 uM) | NanoBRET signal (610/450 ratio, background-subtracted), Read1, Bcl-xl ([1]; 1 uM) | NanoBRET signal (610/450 ratio, background-subtracted), Read2, Bcl-xl ([1]; 1 uM) | NanoBRET signal (610/450 ratio, background-subtracted), Ave, Bcl-xl ([1]; 3 uM) | NanoBRET signal (610/450 ratio, background-subtracted), Read1, Bcl-xl ([1]; 3 uM) | NanoBRET signal (610/450 ratio, background-subtracted), Read2, Bcl-xl ([1]; 3 uM) | NanoBRET signal (610/450 ratio, background-subtracted), Ave, Bcl-2 ([2]; 0.333 uM) | NanoBRET signal (610/450 ratio, background-subtracted), Read1, Bcl-2 ([2]; 0.333 uM) | NanoBRET signal (610/450 ratio, background-subtracted), Read2, Bcl-2 ([2]; 0.333 uM) | NanoBRET signal (610/450 ratio, background-subtracted), Ave, Bcl-2 ([2]; 1 uM) | NanoBRET signal (610/450 ratio, background-subtracted), Read1, Bcl-2 ([2]; 1 uM) | NanoBRET signal (610/450 ratio, background-subtracted), Read2, Bcl-2 ([2]; 1 uM) | NanoBRET signal (610/450 ratio, background-subtracted), Ave, Bcl-2 ([2]; 3 uM) | NanoBRET signal (610/450 ratio, background-subtracted), Read1, Bcl-2 ([2]; 3 uM) | NanoBRET signal (610/450 ratio, background-subtracted), Read2, Bcl-2 ([2]; 3 uM)
1 | Cc1ncsc1-c1ccc(C(C)NC(=O)C2CC(O)CN2C(=O)C(NC(=O)CCCCCCCC(=O)N2CCN(CC3(C)CCC(c4ccc(Cl)cc4)=C(CN4CCN(c5ccc(C(=O)NS(=O)(=O)c6ccc(NC(CCN7CCOCC7)CSc7ccccc7)c(S(=O)(=O)C(F)(F)F)c6)cc5)CC4)C3)CC2)C(C)(C)C)cc1 (mixture of isomers) [319-C9] | 7.303 and 5.548 and 6.719 | 7.675 and 6.0029 and 7.554 | 6.932 and 5.093 and 5.885 | 6.725 and 7.112 | 7.559 and 11.4906 and 7.902 | 5.8908 and 9.929 and 6.321 | 8.449 and 8.436 and 7.804 | 8.506 and 8.886 and 8.744 | 8.392 and 7.986 and 6.863 | 5.707 and 5.966 and 5.739 | 6.091 and 5.602 and 5.911 | 5.322 and 6.329 and 5.568 | 8.164 and 7.003 and 7.361 | 7.94 and 7.065 and 7.5271 | 8.387 and 6.941 and 7.196 | 7.788 and 8.559 and 8.325 | 7.715 and 8.321 and 8.876 | 7.862 and 8.797 and 7.774
2 | Cc1ncsc1-c1ccc(C(C)NC(=O)C2CC(O)CN2C(=O)C(NC(=O)CCCCCCCCC(=O)N2CCN(CC3(C)CCC(c4ccc(Cl)cc4)=C(CN4CCN(c5ccc(C(=O)NS(=O)(=O)c6ccc(NC(CCN7CCOCC7)CSc7ccccc7)c(S(=O)(=O)C(F)(F)F)c6)cc5)CC4)C3)CC2)C(C)(C)C)cc1 (mixture of isomers) [319-C10] | 7.322 and 6.232 and 5.134 | 7.3 and 6.35 and 5.398 | 7.344 and 6.1137 and 4.87 | 7.385 and 6.082 and 6.14 | 7.049 and 5.821 and 5.916 | 7.722 and 6.342 and 6.364 | 5.435 and 6.539 and 6.402 | 5.79 and 7.0778 and 5.898 | 5.08 and 6.001 and 6.906 | 5.28 and 5.803 and 5.204 | 5.21 and 6.342 and 5.353 | 5.35 and 5.263 and 5.054 | 6.3574 and 6.177 and 5.647 | 6.493 and 6.555 and 5.614 | 6.221 and 5.799 and 5.68 | 5.897 and 6.959 and 6.718 | 5.772 and 7.082 and 6.87 | 6.022 and 6.837 and 6.566
